# Active and inactive are the calls of the source.
# Legend:
# Cytochrome P450 2C9 = Cytochrome P450 2C9 (Homo sapiens, UniProt P11712)
# [1] = tested on: Streptococcus sp. 'group A'; test: growth inhibition of control SK(-) GAS strain, dose response, counter-screen for streptokinase expression inhibitor project, luminescence, kanamycin, BacTiterGlo, confirmation (AID 1900); format: functional, organism-based
# Streptococcus = test: Group A Streptococcus viability loss, dose response, counter-screen for streptokinase expression inhibitor project, luminescence, BacTiterGlo (AID 1915); format: functional, organism-based;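 note: potency for reduction of bacterial viability or growth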
# [2] = inhibitors of intracellular T. cruzi replication, confirmation, NIH3T3 host cells, beta-gal luminescence (AID 2044); format: functional, cell-based;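 note: intracellular parasites grown in NIH/3T3 mouse fibroblasts as host cells; luminescent beta-galactosidase reporter signal from transgenic T. cruzi replicating inside host cells; inhibitors lower the luminescence signal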
# [3] = cytotoxicity toward NIH3T3 fibroblasts, dose response, counter-screen, cell-based, ATP luminescence, mouse fibroblasts (AID 2010); format: functional; conditions: NIH3T3;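 note: cells exposed to compound for about 90 hours before reading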
# [4] = HEp-2 cell cytotoxicity, dose response, cytotoxicity control for RSV inhibitor project, HTS (AID 2410); format: functional; conditions: human respiratory syncytial virus
# Cytochrome P450 2C19 = Cytochrome P450 2C19 (Homo sapiens, UniProt P33261); test: Cytochrome panel assay with activity outcomes. Panel member name: p450-cyp2c19 Compounds with AC50 equal or less than 10 uM are considered active; format: functional
# Cytochrome P450 3A4 = Cytochrome P450 3A4 (Homo sapiens, UniProt P08684);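 note: CYP3A4 tested as one member of a cytochrome P450 panel screen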
# Streptokinase A = target: T1, Streptokinase A (Streptococcus pyogenes serotype M1, UniProt P10520); test: S. pyogenes streptokinase expression inhibitors, potency, dose response, plasminogen activation absorbance, OD405 (AID 1914); format: functional, Streptococcus pyogenes M1 GAS;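 note: secreted streptokinase activity via plasminogen activation per viability signal from cell pellet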
# T1 sequence (P10520 whole entry): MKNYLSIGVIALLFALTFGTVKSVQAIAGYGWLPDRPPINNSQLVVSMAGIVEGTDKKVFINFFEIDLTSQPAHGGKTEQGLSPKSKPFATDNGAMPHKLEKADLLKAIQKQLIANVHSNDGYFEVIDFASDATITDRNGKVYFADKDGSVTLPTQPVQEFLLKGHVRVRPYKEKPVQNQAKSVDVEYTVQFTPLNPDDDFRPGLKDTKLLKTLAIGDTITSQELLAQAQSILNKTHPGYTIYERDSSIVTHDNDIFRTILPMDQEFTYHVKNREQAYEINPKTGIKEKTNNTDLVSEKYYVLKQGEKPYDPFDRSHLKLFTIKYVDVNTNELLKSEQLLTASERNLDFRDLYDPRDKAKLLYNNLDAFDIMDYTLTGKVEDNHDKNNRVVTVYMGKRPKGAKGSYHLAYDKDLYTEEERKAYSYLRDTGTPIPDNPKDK
# [5] = target: T2, Corticotropin-releasing factor receptor 2/Corticotropin-releasing factor-binding protein (Homo sapiens, UniProt P24387+Q13324); test: activators of CRF receptor 2 with binding protein – uHTS hits, confirmation (AID 602473); format: functional; conditions: read-out: EC50_Mean
# T2 sequence (Q13324 whole entry): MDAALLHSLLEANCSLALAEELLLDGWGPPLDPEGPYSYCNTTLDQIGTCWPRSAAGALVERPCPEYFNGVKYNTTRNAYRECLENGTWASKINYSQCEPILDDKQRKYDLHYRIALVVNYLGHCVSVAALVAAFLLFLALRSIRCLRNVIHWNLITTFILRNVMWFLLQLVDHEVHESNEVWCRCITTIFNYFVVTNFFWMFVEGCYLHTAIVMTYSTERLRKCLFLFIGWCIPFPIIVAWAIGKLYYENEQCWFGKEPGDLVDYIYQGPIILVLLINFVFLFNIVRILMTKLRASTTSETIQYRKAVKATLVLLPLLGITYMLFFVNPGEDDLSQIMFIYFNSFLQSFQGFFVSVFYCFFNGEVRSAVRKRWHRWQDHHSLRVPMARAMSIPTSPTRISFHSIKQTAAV
# T2 sequence (P24387 whole entry): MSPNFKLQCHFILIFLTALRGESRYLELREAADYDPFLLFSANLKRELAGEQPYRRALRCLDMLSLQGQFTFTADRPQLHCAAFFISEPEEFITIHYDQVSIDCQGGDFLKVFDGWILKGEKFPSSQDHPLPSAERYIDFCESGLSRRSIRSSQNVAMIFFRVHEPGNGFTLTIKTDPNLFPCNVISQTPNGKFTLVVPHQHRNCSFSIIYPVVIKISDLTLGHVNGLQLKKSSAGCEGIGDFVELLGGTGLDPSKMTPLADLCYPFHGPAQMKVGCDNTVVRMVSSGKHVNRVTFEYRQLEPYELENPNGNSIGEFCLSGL
# Sequence of Cytochrome P450 3A4 (P08684 whole entry): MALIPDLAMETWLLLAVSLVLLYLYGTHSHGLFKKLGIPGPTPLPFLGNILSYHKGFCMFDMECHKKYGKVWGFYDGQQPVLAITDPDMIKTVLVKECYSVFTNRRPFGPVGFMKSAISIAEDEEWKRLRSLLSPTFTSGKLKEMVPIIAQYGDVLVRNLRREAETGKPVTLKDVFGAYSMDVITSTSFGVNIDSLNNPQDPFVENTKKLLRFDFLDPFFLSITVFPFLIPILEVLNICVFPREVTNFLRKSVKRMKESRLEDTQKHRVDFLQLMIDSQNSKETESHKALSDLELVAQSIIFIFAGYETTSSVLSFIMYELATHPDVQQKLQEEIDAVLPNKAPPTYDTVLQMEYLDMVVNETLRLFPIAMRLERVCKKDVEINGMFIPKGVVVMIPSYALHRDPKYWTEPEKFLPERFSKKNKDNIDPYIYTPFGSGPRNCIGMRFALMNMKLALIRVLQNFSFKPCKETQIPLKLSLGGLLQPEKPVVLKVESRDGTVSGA
# Sequence of Cytochrome P450 2C9 (P11712 whole entry): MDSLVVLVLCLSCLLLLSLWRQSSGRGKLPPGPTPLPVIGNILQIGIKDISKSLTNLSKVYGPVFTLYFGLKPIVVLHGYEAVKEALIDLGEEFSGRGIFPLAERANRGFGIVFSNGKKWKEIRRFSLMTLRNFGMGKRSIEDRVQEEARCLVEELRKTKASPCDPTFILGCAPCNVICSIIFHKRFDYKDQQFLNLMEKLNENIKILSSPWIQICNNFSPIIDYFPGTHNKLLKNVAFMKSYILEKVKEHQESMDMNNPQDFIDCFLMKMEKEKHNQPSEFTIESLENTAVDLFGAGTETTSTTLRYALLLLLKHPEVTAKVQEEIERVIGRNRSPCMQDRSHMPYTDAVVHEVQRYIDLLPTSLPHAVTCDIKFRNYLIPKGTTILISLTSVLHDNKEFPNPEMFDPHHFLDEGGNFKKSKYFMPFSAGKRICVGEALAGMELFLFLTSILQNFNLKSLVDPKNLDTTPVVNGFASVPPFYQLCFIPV
# Sequence of Cytochrome P450 2C19 (P33261 whole entry): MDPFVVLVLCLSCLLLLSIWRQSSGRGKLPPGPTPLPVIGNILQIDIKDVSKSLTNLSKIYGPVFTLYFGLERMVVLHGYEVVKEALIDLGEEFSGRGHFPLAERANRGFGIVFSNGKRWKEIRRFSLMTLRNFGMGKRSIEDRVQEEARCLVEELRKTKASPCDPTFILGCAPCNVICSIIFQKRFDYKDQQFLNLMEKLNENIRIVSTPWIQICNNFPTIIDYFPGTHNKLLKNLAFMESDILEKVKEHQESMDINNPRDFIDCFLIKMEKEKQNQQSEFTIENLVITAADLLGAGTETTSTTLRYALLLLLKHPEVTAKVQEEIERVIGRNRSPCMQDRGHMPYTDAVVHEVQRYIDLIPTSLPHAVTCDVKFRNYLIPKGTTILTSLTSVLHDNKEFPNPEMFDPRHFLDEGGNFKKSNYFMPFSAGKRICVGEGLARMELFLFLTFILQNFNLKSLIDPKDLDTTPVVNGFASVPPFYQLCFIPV
smiles,measurement,setting,value
C[C@]12C=CC(=O)C=C1CC[C@@H]1[C@H]3C[C@@H](O)[C@](O)(C(=O)CO)[C@@]3(C)C[C@H](O)[C@]12F,AC50,Cytochrome P450 2C9,15.8 µM (inconclusive)
Cc1cc(Cl)ccc1N=C(S)NCCC(c1ccccc1)c1ccccc1,EC50,[1],5.18 µM (active)
same,EC50,Streptococcus,30.3 µM (active)
COC(=O)[C@@]1(Cc2ccc(OC)cc2)[C@H]2c3cc(C(=O)N4CCCC4)n(CCn4cc([N+](=O)[O-])nc4C)c3C[C@H]2CN1C(=O)c1ccccc1,AC50,Cytochrome P450 2C9,31.6 µM (inconclusive)
C=CC[n+]1c(-c2ccc(C)cc2)csc1Nc1c(C)n(C)n(-c2ccccc2)c1=O,EC50,[2],4.99 µM (active)
same,EC50,[3],> 60 µM (not active)
CC(/C=C/c1ccccc1)=N\NC(=O)C1CC1(C)c1ccccc1 (centres undefined),CC50,[4],32 µM (active)
CCCCNC1=N/C(=C\c2ccco2)C(=O)N1c1ccccc1,AC50,Cytochrome P450 2C19; read-out: AC50,39.8 µM (inconclusive)
same,AC50,Cytochrome P450 2C9,4.47 µM (inconclusive)
NC(=O)c1csc(-c2ccc(CO)o2)n1,AC50,Cytochrome P450 2C19,inconclusive
O=S(=O)(c1ccccc1)N1CCC2(CCN(c3ccccc3)CC2)CC1,AC50,Cytochrome P450 2C19; read-out: AC50,10 µM (inconclusive)
same,AC50,Cytochrome P450 3A4,2.51 µM (inconclusive)
same,AC50,Cytochrome P450 2C9,39.8 µM (inconclusive)
Cc1ccccc1C(=O)Nc1ccc(C(=O)NNC(=O)CCCOc2ccc(Cl)cc2Cl)cc1,AC50,Cytochrome P450 2C19; read-out: AC50,17.8 µM (inconclusive)
Clc1ccc(-c2n[nH]c3c2CCC3)c(Cl)c1,EC50,Streptokinase A,> 150 µM (not active)
CC[C@@H](c1ccccc1)n1c(=O)n2n(c1=O)[C@H]1[C@H](O)[C@H]3O[C@@H]3/C(=N/OCc3ccccc3)[C@@H]1CC2,AC50,Cytochrome P450 3A4,5.01 µM (inconclusive)
CCOc1ccc(NS(=O)(=O)c2ccc(C(=O)N3CC(C)OC(C)C3)cc2)cc1 (centres undefined),EC50,[5],7.94 µM (active)
CCN1CCCc2cc(CN(CCN3CCOCC3)C(S)=Nc3ccc(OC)c(Cl)c3)ccc21,EC50,[2],1.63 µM (active)
same,EC50,[3],> 60 µM (not active)
Cc1ccc2[nH]c(/C(C#N)=C\c3cc(C)n(-c4cccc([N+](=O)[O-])c4)c3C)nc2c1,CC50,[4],16.6 µM (active)
CCN(CC)c1nc(-c2ccccc2)ncc1S(=O)(=O)c1ccc(C)cc1,EC50,[2],2.65 µM (active)
same,EC50,[3],> 60 µM (not active)
COc1ccc(Nc2nnc(-c3ccc(O)cc3)c3ccccc23)cc1,EC50,[2],3.48 µM (active)
same,EC50,[3],> 60 µM (not active)
CCC/C=C(\CCC)C(NS(=O)(=O)c1ccc(C(F)(F)F)cc1)c1ccc(C(=O)OC)cc1 (centres undefined),AC50,Cytochrome P450 3A4,1 µM (inconclusive)
CC(C)(C)c1nc(SCC(=O)Nc2ccc(N3CCOCC3)cc2)c2ccccc2n1,AC50,Cytochrome P450 3A4,1 µM (inconclusive)
CCC1CCCCN1c1nc(-c2ccncc2)nc2ccccc12 (centres undefined),EC50,[2],0.521 µM (active)
same,EC50,[3],6.4 µM (active)
CC(=O)Nc1c(C)nn(-c2ccc(C)c(C)c2)c1C,AC50,Cytochrome P450 2C19; read-out: AC50,39.8 µM (inconclusive)
O=C(c1ccco1)N1CCN(C(=O)c2nn3cccnc3c2Cl)CC1,AC50,Cytochrome P450 2C19,inconclusive
COc1ccc(C(=O)N2CCC[C@@]3(CCN(c4ccccc4)C3)C2)cc1,AC50,Cytochrome P450 3A4,7.94 µM (inconclusive)
O=C(NNc1nc(-c2ccc(F)cc2)cs1)c1ccccc1,EC50,[1],0.831 µM (active)
same,EC50,Streptokinase A,> 150 µM (not active)
same,EC50,Streptococcus,> 150 µM (not active)
O=S(=O)(c1ccccc1)N1CCC2(CCN(c3ccc(-c4ccccc4)cc3)CC2)CC1,AC50,Cytochrome P450 3A4,20 µM (inconclusive)
Clc1ccc(-c2[nH]nc3c2CCC3)c(Cl)c1,EC50,[1],16.8 µM (active)
same,EC50,Streptococcus,> 150 µM (not active)
CCNC(=S)N/N=C/c1cccc(OCc2c(F)cccc2Cl)c1,EC50,[2],1.15 µM (active)
same,EC50,[3],> 30 µM (not active)
COc1ccc2nc(NC(C)=O)sc2c1,AC50,Cytochrome P450 2C19; read-out: AC50,39.8 µM (inconclusive)
same,AC50,Cytochrome P450 3A4,28.2 µM (inconclusive)
CC1CN(S(=O)(=O)c2cccc(C(=O)Nc3cc(Cl)ccc3N3CCOCC3)c2)CC(C)O1 (centres undefined),CC50,[4],43 µM (active)
CCOc1cc(CNc2ccc3c(c2)CCC3)ccc1OC,EC50,[1],> 150 µM (not active)
same,EC50,Streptokinase A,> 150 µM (not active)
same,EC50,Streptococcus,> 150 µM (not active)
Cc1ccc(NC2c3ncccc3C(=O)N2Cc2ccc(F)cc2)cc1 (centres undefined),CC50,[4],> 50 µM (active)
CC(=O)c1cccc(NC(=O)c2csc(-n3nc(C)cc3C(F)(F)F)n2)c1,AC50,Cytochrome P450 2C19; read-out: AC50,7.94 µM (inconclusive)
same,AC50,Cytochrome P450 2C9,1 µM (inconclusive)
CC(C)NC(=O)N1CC2(CCN(C(=O)c3ccncc3)CC2)C1,AC50,Cytochrome P450 3A4,0.0794 µM (inconclusive)
CC[C@@H](CO)Nc1nc(NCc2ccccc2)c2ncn(C(C)C)c2n1 [(S)-ROSCOVITINE],AC50,Cytochrome P450 2C9,0.316 µM (inconclusive)
CCC(c1nnnn1C(C)(C)C)N(Cc1cccs1)Cc1cc2cc(C)c(C)cc2n2nnnc12 (centres undefined),EC50,[2],1.02 µM (active)
same,EC50,[3],> 60 µM (not active)
CC1(C)CC(O)CC(C)(C)N1CC(O)COCCOc1ccc(Br)cc1 (centres undefined),AC50,Cytochrome P450 2C19,inconclusive
CC(C)NC(=O)N(C)C[C@H]1OCc2cnnn2CCCC(=O)N([C@H](C)CO)C[C@H]1C,EC50,[5],> 53 µM (inactive)
COc1ccc(C(=O)N2CCC3(CCCN(c4ccccn4)C3)CC2)cc1,AC50,Cytochrome P450 2C19; read-out: AC50,25.1 µM (inconclusive)
COC(=O)c1cc(C(=O)Nc2nc3ccccc3[nH]2)cc([N+](=O)[O-])c1,EC50,[1],3.94 µM (active)
same,EC50,Streptokinase A,> 150 µM (not active)
same,EC50,Streptococcus,> 150 µM (not active)
COc1ccc(C(CNC(=O)c2oc3ccc(Br)cc3c2C)N2CCCCC2)cc1 (centres undefined),EC50,[2],2.37 µM (active)
same,EC50,[3],> 60 µM (not active)
COC(=O)C1(C)C=C2C(=C(c3ccccc3)C(=O)C2C)CN1 (centres undefined),AC50,Cytochrome P450 2C19; read-out: AC50,39.8 µM (inconclusive)
Cn1cccc1CC(=O)NNC(=S)NC(=O)c1ccccc1Br,EC50,[1],5.95 µM (active)
same,EC50,Streptokinase A,> 150 µM (not active)
same,EC50,Streptococcus,137 µM (active)
CCCc1nc2ccccc2c(=O)n1NC(=O)c1c(O)c2cccc3c2n(c1=O)CCC3,EC50,[1],3.78 µM (active)
same,EC50,Streptokinase A,> 150 µM (not active)
same,EC50,Streptococcus,7.68 µM (active)
CN(C)c1ccc(-c2cncnc2NCCc2cnc[nH]2)cc1,AC50,Cytochrome P450 2C9,0.501 µM (inconclusive)
CN(c1ccccc1)S(=O)(=O)c1ccc(C(=O)Nc2ccncc2)cc1,EC50,[2],1.18 µM (active)
same,EC50,[3],> 60 µM (not active)
O=c1c(CCc2ccccc2)nc2cnc(Oc3ccccc3)nc2n1C1CC1,AC50,Cytochrome P450 3A4,15.8 µM (inconclusive)
O=C(O)CC[C@@H](NC(=O)c1ccccc1C(=O)O)C(=O)O,AC50,Cytochrome P450 2C19; read-out: AC50,0.0251 µM (inconclusive)
CCOC(=O)c1nn(-c2ccccc2Cl)c(=O)cc1OCC(=O)Nc1cccc(OC)c1,EC50,[1],31.2 µM (active)
same,EC50,Streptokinase A,> 150 µM (not active)
same,EC50,Streptococcus,> 150 µM (not active)
CCNc1nc(NCC)nc(-n2nc(C)cc2C)n1,EC50,[1],17.2 µM (active)
same,EC50,Streptokinase A,> 150 µM (not active)
same,EC50,Streptococcus,> 150 µM (not active)
Cc1cccc(CNc2ncnc3ccc(-c4c(C)noc4C)cc23)c1,AC50,Cytochrome P450 2C9,1 µM (inconclusive)
CCCCC(=O)NC(=S)NNC(=O)CCc1ccccc1,EC50,[1],3.35 µM (active)
same,EC50,Streptococcus,8.5 µM (active)
same,EC50,[5],4.32 µM (active)
CCCc1nnc(SCC(=O)N2CCCCC2)n1CC1CCCO1 (centres undefined),AC50,Cytochrome P450 2C19; read-out: AC50,17.8 µM (inconclusive)
CCCCNC(=O)NS(=O)(=O)c1ccc(C(=O)OC(C)C)o1,AC50,Cytochrome P450 2C19; read-out: AC50,39.8 µM (inconclusive)
COc1ccc(-c2nc3cnc(Nc4cccc(OC)c4)nc3n(C[C@H]3CCCO3)c2=O)cc1,AC50,Cytochrome P450 3A4,5.01 µM (inconclusive)
CC(C)c1csc(CN2CCC(CO)(Cc3cccc(F)c3)CC2)n1,EC50,[2],1.09 µM (active)
same,EC50,[3],> 60 µM (not active)
Cc1c(C)c(C)c2[nH]c(-c3ccc4c(c3)OCO4)nc2c1C,EC50,[2],1.45 µM (active)
same,EC50,[3],> 30 µM (not active)
